Results as given in PubChem BioAssay AID2060903 (Molecular Pharmacology Branch, DTP, NCI, 2025).
pIC50: −log10 of the molar value. “And” between values parts separate entries of the source, which are not always exact repeats. Identical values can stand only once.

Test system: 377384-186-R-J1-PDC complex spheroid viability
Test: Anticancer human tumor 377384-186-R-J1-PDC patient-derived pancreatic carcinoma cell line growth inhibition [RAS]
Conditions: for pIC50: curve of first compound; for viability, T/C: stronger effect = lower value; for IC50: curve of compound; active = viability on the fitted dose curve at most 10% of control; inactive = the rest
Procedure, shortened: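 Tumour cells grown as complex spheroids with HUVEC endothelial cells and mesenchymal stem cells, treated with RAS pathway inhibitor combinations. Each agent spans half-log steps from near clinical Cmax, or 10 microM where Cmax is unknown.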

[1] = second compound 0.0316 µM, first compound 0.0316 µM
[2] = second compound 0.0316 µM, first compound 0.1 µM
[3] = second compound 0.0316 µM, first compound 0.316 µM
[4] = second compound 0.0316 µM, first compound 1 µM
[5] = second compound 0.1 µM, first compound 0.0316 µM
[6] = second compound 0.1 µM, first compound 0.1 µM
[7] = second compound 0.1 µM, first compound 0.316 µM
[8] = second compound 0.1 µM, first compound 1 µM
[9] = second compound 0.316 µM, first compound 0.0316 µM
[10] = second compound 0.316 µM, first compound 0.1 µM
[11] = second compound 0.316 µM, first compound 0.316 µM
[12] = second compound 0.316 µM, first compound 1 µM
[13] = second compound 1 µM, first compound 0.0316 µM
[14] = second compound 1 µM, first compound 0.1 µM
[15] = second compound 1 µM, first compound 0.316 µM
[16] = second compound 1 µM, first compound 1 µM
[17] = second compound 3.16 µM, first compound 0.0316 µM
[18] = second compound 3.16 µM, first compound 0.1 µM
[19] = second compound 3.16 µM, first compound 0.316 µM
[20] = second compound 3.16 µM, first compound 1 µM
[21] = second compound 10 µM, first compound 0.0316 µM
[22] = second compound 10 µM, first compound 0.1 µM
[23] = second compound 10 µM, first compound 0.316 µM
[24] = second compound 10 µM, first compound 1 µM
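Note: spheroids exposed to compounds for seven days before readout.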

CC1(O)CCCC1n1c(=O)c(C(F)F)cc2cnc(NC3CCN(S(C)(=O)=O)CC3)nc21 (centres undefined) + C#Cc1c(F)ccc2cc(O)cc(-c3ncc4c(N5CC6CCC(C5)N6)nc(OCC56CCCN5CC(F)C6)nc4c3F)c12
active: viability, T/C (second compound 0.0316 µM, first compound 10 µM) 5.41% | viability, T/C [5] 8.93% | viability, T/C [6] 6.57% | viability, T/C [7] 6.54% | viability, T/C [8] 7.97% | viability, T/C (second compound 0.1 µM, first compound 3.16 µM) 9.01% | viability, T/C (second compound 0.1 µM, first compound 10 µM) 4.92% | viability, T/C [9] 5.04% | viability, T/C [10] 3.52% | viability, T/C [11] 3.71% | viability, T/C [12] 4.22% | viability, T/C (second compound 0.316 µM, first compound 3.16 µM) 6.59% | viability, T/C (second compound 0.316 µM, first compound 10 µM) 5.41% | viability, T/C [13] 2.55% | viability, T/C [14] 2.39% | viability, T/C [15] 2.88% | viability, T/C [16] 3.55% | viability, T/C (second compound 1 µM, first compound 3.16 µM) 4.3% | viability, T/C (second compound 1 µM, first compound 10 µM) 5.91% | viability, T/C [17] 2% | viability, T/C [18] 2.27% | viability, T/C [19] 3.01% | viability, T/C [20] 3.27% | viability, T/C (second compound 3.16 µM, first compound 3.16 µM) 3.34% | viability, T/C (second compound 3.16 µM, first compound 10 µM) 6.51% | viability, T/C [21] 1.76% | viability, T/C [22] 1.46% | viability, T/C [23] 1.91% | viability, T/C [24] 2% | viability, T/C (second compound 10 µM, first compound 3.16 µM) 1.28% | viability, T/C (second compound 10 µM, first compound 10 µM) 2.73%
> 7.50: pIC50 (second compound 0.0316 µM) | pIC50 (second compound 0.1 µM) | pIC50 (second compound 0.316 µM) | pIC50 (second compound 1 µM) | pIC50 (second compound 3.16 µM) | pIC50 (second compound 10 µM)
inactive: viability, T/C [1] 15.5% | viability, T/C [2] 12.7% | viability, T/C [3] 10% | viability, T/C [4] 11.7% | viability, T/C (second compound 0.0316 µM, first compound 3.16 µM) 16%

C=CC(=O)Nc1cc(Nc2nccc(-c3cn(C)c4ccccc34)n2)c(OC)cc1N(C)CCN(C)C + C#Cc1c(F)ccc2cc(O)cc(-c3ncc4c(N5CC6CCC(C5)N6)nc(OCC56CCCN5CC(F)C6)nc4c3F)c12
> 8.50: pIC50 (second compound 0.0316 µM) | pIC50 (second compound 0.1 µM) | pIC50 (second compound 0.316 µM) | pIC50 (second compound 1 µM) | pIC50 (second compound 3.16 µM) | pIC50 (second compound 10 µM)
active: viability, T/C [3] 3.98% | viability, T/C [4] 2.32% | viability, T/C (second compound 0.1 µM, first compound 0.01 µM) 8.96% | viability, T/C [5] 5.18% | viability, T/C [6] 3.75% | viability, T/C [7] 2.22% | viability, T/C [8] 2.24% | viability, T/C (second compound 0.316 µM, first compound 0.00316 µM) 8.47% | viability, T/C (second compound 0.316 µM, first compound 0.01 µM) 5.04% | viability, T/C [9] 3.96% | viability, T/C [10] 2.43% | viability, T/C [11] 1.28% | viability, T/C [12] 1.33% | viability, T/C (second compound 1 µM, first compound 0.00316 µM) 3.67% | viability, T/C (second compound 1 µM, first compound 0.01 µM) 2.76% | viability, T/C [13] 2.37% | viability, T/C [14] 1.47% | viability, T/C [15] 1.51% | viability, T/C [16] 1.43% | viability, T/C (second compound 3.16 µM, first compound 0.00316 µM) 1.79% | viability, T/C (second compound 3.16 µM, first compound 0.01 µM) 1.63% | viability, T/C [17] 1.82% | viability, T/C [18] 1.41% | viability, T/C [19] 1.37% | viability, T/C [20] 1.25% | viability, T/C (second compound 10 µM, first compound 0.00316 µM) 1.63% | viability, T/C (second compound 10 µM, first compound 0.01 µM) 1.14% | viability, T/C [21] 1.21% | viability, T/C [22] 0.66% | viability, T/C [23] 1.89% | viability, T/C [24] 0.82%
inactive: viability, T/C (second compound 0.0316 µM, first compound 0.00316 µM) 23.5% | viability, T/C (second compound 0.0316 µM, first compound 0.01 µM) 20.6% | viability, T/C [1] 15.2% | viability, T/C [2] 11.2% | viability, T/C (second compound 0.1 µM, first compound 0.00316 µM) 11.5%

Cc1nc(N2CCC3(CC2)COC(C)C3N)c(CO)nc1Sc1ccnc(N)c1Cl (centres undefined) + CCn1c(-c2cc(N3CCN(C)CC3)cnc2C(C)OC)c2c3cc(ccc31)-c1csc(n1)CC(NC(=O)C1CC1C)C(=O)N1CCCC(N1)C(=O)OCC(C)(C)C2
active: viability, T/C (second compound 0.000949 µM, first compound 0.316 µM) 5.63% | viability, T/C (second compound 0.000949 µM, first compound 1 µM) 3.93% | viability, T/C (second compound 0.000949 µM, first compound 3.16 µM) 2.14% | viability, T/C (second compound 0.000949 µM, first compound 10 µM) 1.26% | viability, T/C (second compound 0.003 µM, first compound 0.0316 µM) 5.98% | viability, T/C (second compound 0.003 µM, first compound 0.1 µM) 3.1% | viability, T/C (second compound 0.003 µM, first compound 0.316 µM) 1.7% | viability, T/C (second compound 0.003 µM, first compound 1 µM) 1.39% | viability, T/C (second compound 0.003 µM, first compound 3.16 µM) 0.72% | viability, T/C (second compound 0.003 µM, first compound 10 µM) 0.71% | viability, T/C (second compound 0.00949 µM, first compound 0.0316 µM) 2.71% | viability, T/C (second compound 0.00949 µM, first compound 0.1 µM) 2.19% | viability, T/C (second compound 0.00949 µM, first compound 0.316 µM) 1.28% | viability, T/C (second compound 0.00949 µM, first compound 1 µM) 1.66% | viability, T/C (second compound 0.00949 µM, first compound 3.16 µM) 0.87% | viability, T/C (second compound 0.00949 µM, first compound 10 µM) 0.71% | viability, T/C (second compound 0.03 µM, first compound 0.0316 µM) 2.03% | viability, T/C (second compound 0.03 µM, first compound 0.1 µM) 1.9% | viability, T/C (second compound 0.03 µM, first compound 0.316 µM) 1.46% | viability, T/C (second compound 0.03 µM, first compound 1 µM) 1.09% | viability, T/C (second compound 0.03 µM, first compound 3.16 µM) 0.71% | viability, T/C (second compound 0.03 µM, first compound 10 µM) 0.28% | viability, T/C (second compound 0.0949 µM, first compound 0.0316 µM) 1.82% | viability, T/C (second compound 0.0949 µM, first compound 0.1 µM) 1.54% | viability, T/C (second compound 0.0949 µM, first compound 0.316 µM) 1.69% | viability, T/C (second compound 0.0949 µM, first compound 1 µM) 0.9% | viability, T/C (second compound 0.0949 µM, first compound 3.16 µM) 0.56% | viability, T/C (second compound 0.0949 µM, first compound 10 µM) 0.2% | viability, T/C (second compound 0.3 µM, first compound 0.0316 µM) 1.8% | viability, T/C (second compound 0.3 µM, first compound 0.1 µM) 1.68% | viability, T/C (second compound 0.3 µM, first compound 0.316 µM) 1.39% | viability, T/C (second compound 0.3 µM, first compound 1 µM) 1.08% | viability, T/C (second compound 0.3 µM, first compound 3.16 µM) 0.69% | viability, T/C (second compound 0.3 µM, first compound 10 µM) 0.21%
inactive: viability, T/C (second compound 0.000949 µM, first compound 0.0316 µM) 28.9% | viability, T/C (second compound 0.000949 µM, first compound 0.1 µM) 15.6%
> 7.50: pIC50 (second compound 0.000949 µM) | pIC50 (second compound 0.003 µM) | pIC50 (second compound 0.00949 µM) | pIC50 (second compound 0.03 µM) | pIC50 (second compound 0.0949 µM) | pIC50 (second compound 0.3 µM)

Nc1ccn(C2OC(CO)C(O)C2(F)F)c(=O)n1 (centres undefined)
active: viability, T/C (compound 0.1 µM) 5.39% [middle of 4 runs] | viability, T/C (compound 0.316 µM) 4.06% [middle of 4 runs] | viability, T/C (compound 1 µM) 3.19% [middle of 4 runs]
6.44 nM [middle of 4 runs]: IC50
21.4% and 7.24% and 10.1% (2×): viability, T/C (compound 0.0316 µM)
inactive: viability, T/C (compound 0.01 µM) 36.6% [middle of 4 runs]

CCc1c2c(nc3ccc(O)cc13)-c1cc3c(c(=O)n1C2)COC(=O)[C@]3(O)CC
1.8 nM [middle of 4 runs]: IC50
inactive: viability, T/C (compound 0.000949 µM) 69.8% [middle of 4 runs] | viability, T/C (compound 0.003 µM) 35% [middle of 4 runs] | viability, T/C (compound 0.00949 µM) 16.7% [middle of 4 runs]
active: viability, T/C (compound 0.03 µM) 7.4% [middle of 4 runs] | viability, T/C (compound 0.0949 µM) 2.65% [middle of 4 runs] | viability, T/C (compound 0.3 µM) 2.02% [middle of 4 runs]
